The text below walks through data of patent US20060100257A1, “Inhibitors against the activation of ap-1 and nfat” (priority 2002, published 2006).

Structures are written as SMILES. Where only a bound is given, the exact number is not on record here.

Data set [1] relates to AP-1. Nature of the data set: Inhibition of AP-1 activation by forced expression of MEKK-1 (pAP-1-Luc reporter, HepG2). The class given is cell-based, human. The note with it: HepG2, MEKK-1 expression plasmid, 24 hours; for Inhibitory Ratio of AP-1 Activation(%) Drug Concentration 1 μM: test compound 1 μM; for Inhibitory Ratio of AP-1 Activation(%) Drug Concentration 1 μg/mL: test compound 1 μg/mL. An excerpt: Measurement of Inhibition of AP-1 Activation by Forced Expression of MEKK-1
Using a transfection reagent (Effectene; QIAGEN), the human hepatoma cell strain HepG2 was cotransfected with a plasmid (pAP-1-Luc Reporter Plasmid: STRATAGENE), integrated with an oligonucleotide having seven tandem copies of AP-1 binding sequences (TGACTAA) on an upstream region of the firefly luciferase gene (Luc), and the MEKK-1 expression plasmid (pFCMEKK: STRATAGENE) according to the QIAGEN's protocol, and the cells were incubated for 20 to 24 hours. Then, after the cells were incubated in the presence or absence of a test compound for 24 hours, intracellular luciferase activity was measured by using PicaGene LT(TOYO INK MFG Co., Ltd.) and a chemical luminescence measurement apparatus (SPECTRAFluor Plus; TECAN). The inhibitory ratio was measured as a ratio relative to the value of the luciferase activity in the absence of the test compound.

Data set [2] has as its system NFAT. Nature of the data set: Inhibition of NFAT activation (2) (NFAT Luc reporter, HepG2). As to conditions: HepG2, TPA (200 nM) and ionomycin (2 μM); for Inhibition Ratio of NFAT Activation(%) Drug Concentration 1 μM: test compound 1 μM; for Inhibition Ratio of NFAT Activation(%) Drug Concentration 1 μg/mL: test compound 1 μg/mL. In kind it is cell-based, human. As to the method:
Measurement of Inhibition of NFAT Activation (2)
Using a transfection reagent (Effectene; QIAGEN), the human hepatoma cell strain HepG2 was transfected with a plasmid (NFAT Luc) which was integrated with an NFAT binding sequence on a upstream region of the firefly luciferase gene (Luc) according to the QIAGEN's protocol, and the cells were incubated for 20 to 24 hours.
After incubation of the cells in the presence or absence of a test compound for 4 hours, TPA (200 nM) and ionomycin (2 μM) were added and the cells were incubated for 20 to 24 hours.
Then, intracellular luciferase activity was measured by using PicaGene LT(TOYO INK MFG Co., Ltd.) and a chemical luminescence measurement apparatus (SPECTRAFluor Plus; TECAN).
The inhibitory ratio was measured as a ratio relative to the value of the luciferase activity in the absence of the test compound.

Data set [3] concerns AP-1. In words: Inhibition of AP-1 activation by TNF α stimulation (pAP-1-Luc reporter, HeLa). As to conditions: TNF-α (40 ng/ml), 4 hours; for Inhibitory Ratio of AP-1 Activation(%) Drug Concentration 10 μg/mL: test compound 10 μg/mL; for Inhibitory Ratio of AP-1 Activation(%) Drug Concentration 1 μg/mL: test compound 1 μg/mL. The class given is cell-based, human. On the procedure: Measurement of Inhibition of AP-1 Activation by TNF α Stimulation
Using a transfection reagent (Effectene; QIAGEN), the human uterine cancer cell strain HeLa was transfected with a plasmid (pAP-1-Luc Reporter Plasmid: STRATAGENE) according to the QIAGEN's protocol, which was integrated with an oligonucleotide having seven tandem copies of AP-1 binding sequences (TGACTAA) on a upstream region of firefly luciferase gene (Luc), and the cells were incubated for 6 to 24 hours. Then, the cells were added with TNF-α (40 ng/ml) in the presence or absence of a test compound and incubated for 4 hours, and intracellular luciferase activity was measured by using PicaGene LT(TOYO INK MFG Co., Ltd.) and chemical luminescence measurement apparatus(SPECTRAFluor Plus; TECAN). The inhibitory ratio was obtained as a ratio relative to the value of the luciferase activity in the absence of the test compound.

Data set [4] concerns NFAT. Nature of the data set: Inhibition of NFAT activation (1) (NFAT-LacZ reporter, Jurkat cell). In kind it is cell-based. As to conditions: A23187 and PMA, 4 hours. On the procedure: Measurement of Inhibition of NFAT Activation (1)
A Jurkat cell transfected with a reporter plasmid (NFAT-LacZ), which was integrated with the NFAT binding sequence on a upstream region of the β-galactosidase gene (LacZ) according to the method described in the “Proceedings of The National Academy of Sciences of The United States of America” 1991, Vol. 88, No. 9, p. 3972-3976, was incubated for 4 hours in the Modified RPMI 1640 medium in the presence of A23187 as a calcium ionophore and PMA (Phorbol 12-myristate 13-acetate), and in the presence or absence of a test compound. Then, intracellular β-galactosidase activity was measured by the method described in the “Proceedings of The National Academy of Sciences of The United States of America” 1991, Vol. 88, No. 9, p. 3972-3976. The inhibitory ratio was obtained as a ratio relative to the value of the β-galactosidase activity in the absence of the test compound.

As to `CC(C)(C)C(=O)c1sc(NC(=O)c2cc(Cl)ccc2O)nc1C(C)(C)C` [compound 195, 5-Chloro-N-{4-[(1,1-dimethyl)ethyl]-5-[(2,2-dimethyl)propionyl]thiazol-2-yl}-2-hydroxybenzamide], in data set [1], the “Inhibitory Ratio of AP-1 Activation(%) Drug Concentration 1 μM” value is 91.2% and the “Inhibitory Ratio of AP-1 Activation(%) Drug Concentration 1 μg/mL” value is listed as 95.5%. Besides, in data set [2], the “Inhibition Ratio of NFAT Activation(%) Drug Concentration 1 μM” value was determined as 96.8% and the “Inhibition Ratio of NFAT Activation(%) Drug Concentration 1 μg/mL” value is listed as 86.7%.

`O=C(Nc1cc(C(F)(F)F)cc(C(F)(F)F)c1)c1cc(C#Cc2ccccc2)ccc1O` [Compound No. 65, N-[3,5-bis(trifluoromethyl)phenyl]-2-hydroxy-5-(phenylethynyl)benzamide]: in data set [3], the “Inhibitory Ratio of AP-1 Activation(%) Drug Concentration 10 μg/mL” value is on record as 44.1%.

Take `CCOC(=O)c1sc(NC(=O)c2cc(-c3cccs3)ccc2O)nc1-c1ccccc1` [compound 223, 2-[2-Hydroxy-5-(2-thienyl)benzoyl]amino-4-phenylthiazole-5-carboxylic acid ethyl ester]: the “Inhibitory Ratio of AP-1 Activation(%) Drug Concentration 10 μg/mL” value in data set [3] is recorded as 7.0%.

As for `O=C(Nc1cc(C(F)(F)F)cc(C(F)(F)F)c1)c1cc(-n2cccc2)ccc1O` [Compound No. 71], in data set [1], the “Inhibitory Ratio of AP-1 Activation(%) Drug Concentration 1 μg/mL” value stood at 98.0%. In addition, in data set [2], the “Inhibition Ratio of NFAT Activation(%) Drug Concentration 1 μg/mL” value was greater than 99.9%.

For `O=C(Nc1cc(C(F)(F)F)cc(C(F)(F)F)c1)c1cc(-c2ccccc2)ccc1O` [Compound No. 67], in data set [3], the “Inhibitory Ratio of AP-1 Activation(%) Drug Concentration 1 μg/mL” value came to 18.1% and the “Inhibitory Ratio of AP-1 Activation(%) Drug Concentration 10 μg/mL” value was determined as 60.9%. For the same molecule, in data set [1], the “Inhibitory Ratio of AP-1 Activation(%) Drug Concentration 1 μg/mL” value is given as 94.8%. Moreover, the “Inhibition Ratio of NFAT Activation(%) Drug Concentration 1 μg/mL” value in data set [2] is greater than 99.9%.

As for `CC(C)(C)c1nc(NC(=O)c2cc(Br)ccc2O)sc1N1CCN(c2ccccc2)CC1` [compound 201, 5-Bromo-N-{4-[(1,1-dimethyl)ethyl]-5-(4-phenylpiperazin-1-yl)thiazol-2-yl}-2-hydroxybenzamide], the “Inhibitory Ratio of AP-1 Activation(%) Drug Concentration 1 μg/mL” value in data set [1] was determined as 79.1%. The “Inhibition Ratio of NFAT Activation(%) Drug Concentration 1 μg/mL” value in data set [2] is reported as greater than 99.9%.

By melting point is commonly meant the temperature, or range, at which the solid turns liquid. For `CC(=O)Oc1ccccc1C(=O)Nc1cc(Cl)cc(Cl)c1` [compound 172, 2-acetoxy-N-(3,5-dichlorophenyl)benzamide], the melting point lay in the range of 218 to 219 °C.

`CCOC(=O)c1sc(NC(=O)c2cc(Br)ccc2O)nc1-c1ccccc1` [compound 209, 2-(5-bromo-2-hydroxybenzoyl)amino-4-phenylthiazole-5-carboxylic acid ethyl ester]: in data set [3], the “Inhibitory Ratio of AP-1 Activation(%) Drug Concentration 1 μg/mL” value is reported as 21.7% and the “Inhibitory Ratio of AP-1 Activation(%) Drug Concentration 10 μg/mL” value was 55.3%.

Regarding `O=C(Nc1cc(C(F)(F)F)cc(C(F)(F)F)c1)c1cc(Cl)ccc1O` [Compound No. 50, N-[3,5-Bis(trifluoromethyl)phenyl]-5-chloro-2-hydroxybenzamide], in data set [3], the “Inhibitory Ratio of AP-1 Activation(%) Drug Concentration 1 μg/mL” value stood at 42.4% and the “Inhibitory Ratio of AP-1 Activation(%) Drug Concentration 10 μg/mL” value amounted to 89.1%. For the same molecule, the “Inhibitory Ratio of NFAT Activation(%) Drug Concentration 1 μM” value in data set [4] (test compound 1 μM) is recorded as 70%. Besides, the “Inhibitory Ratio of NFAT Activation(%) Drug Concentration 10 μM” value in data set [4] (test compound 10 μM) was 100%. In data set [1], the “Inhibitory Ratio of AP-1 Activation(%) Drug Concentration 1 μM” value worked out at 90.7% and the “Inhibitory Ratio of AP-1 Activation(%) Drug Concentration 1 μg/mL” value is recorded as 99.4%. In data set [2], the “Inhibition Ratio of NFAT Activation(%) Drug Concentration 1 μM” value came out at 94.8% and the “Inhibition Ratio of NFAT Activation(%) Drug Concentration 1 μg/mL” value amounted to 99.5%.

Turning to `O=C(Nc1cc(C(F)(F)F)cc(C(F)(F)F)c1)c1cc(I)ccc1O` [Compound No. 52, N-[3,5-bis(trifluoromethyl)phenyl]-2-hydroxy-5-iodobenzamide], in data set [3], the “Inhibitory Ratio of AP-1 Activation(%) Drug Concentration 1 μg/mL” value is 25.4% and the “Inhibitory Ratio of AP-1 Activation(%) Drug Concentration 10 μg/mL” value was determined as 82.4%.

Regarding `CC(C)(C)c1ccc(O)c(C(=O)Nc2cc(C(F)(F)F)cc(C(F)(F)F)c2)c1` [Compound No. 56, N-[3,5-Bis(trifluoromethyl)phenyl]-5-[(1,1-dimethyl)ethyl]-2-hydroxybenzamide], in data set [1], the “Inhibitory Ratio of AP-1 Activation(%) Drug Concentration 1 μM” value is on record as 82.6% and the “Inhibitory Ratio of AP-1 Activation(%) Drug Concentration 1 μg/mL” value came to 96.3%. Further, in data set [2], the “Inhibition Ratio of NFAT Activation(%) Drug Concentration 1 μM” value is listed as 88.9% and the “Inhibition Ratio of NFAT Activation(%) Drug Concentration 1 μg/mL” value came out at 99.7%.

With `CC(C)(C)c1nc(NC(=O)c2cc(Br)ccc2O)sc1N1CCOCC1` [compound 199, 5-Bromo-N-{4-[(1,1-dimethyl)ethyl]-5-morpholinothiazol-2-yl}-2-hydroxybenzamide], the “Inhibitory Ratio of AP-1 Activation(%) Drug Concentration 1 μg/mL” value in data set [1] turned out to be 70.6%. Further, the “Inhibition Ratio of NFAT Activation(%) Drug Concentration 1 μg/mL” value in data set [2] is greater than 99.9%.
